46 compounds from patent US6380238B1, “Indoline derivatives as 5-HT2B and or 5-HTC receptor ligands” (Vernalis Research Limited, priority 1998, dated 2002) can be followed below.

Data set [1] concerns the target 5-HT2A receptor (Homo sapiens, UniProt P28223). The data set is described as follows: Functional activity, FLIPR calcium assay in CHO cells expressing human 5-HT2A. The format is cell-based. Also noted: expressed in transfected cells; host or cells: CHO cells. The note with it: for Emax: CHO, read-out: h5-HT2A Relative Efficacy (%). The method, then: (§1) The functional activity of compounds of formula (I) was assayed using a Fluorimetric Imaging Plate reader (FLIPR). CHO cells expressing the human 5-HT2C or human 5-HT2A receptors were counted and plated into standard 96 well microtitre plates on the day before testing to give a confluent monolayer. The cells were then dye loaded with the calcium sensitive dye, Fluo-3-AM. Unincorporated dye was removed using an automated cell washer to leave a total volume of 100 μL/well of assay buffer (Hanks balanced salt solution containing 20 mM Hepes and 2.5 mM probenecid). The drug (dissolved in 50 μL of the assay buffer) was added at a rate of 70 μL/sec to each well of the FLIPR 96 well plate during fluorescence measurements. The measurements were taken at 1 sec intervals and the maximum fluorescent signal was measured (approx 10-15 secs after drug addition) and compared with the response produced by 10 μM 5-HT (defined as 100%) to which it was expressed as a percentage response (relative efficacy). Dose response curves were constructed using Graphpad Prism (Graph Software Inc.).

Data set [2] concerns the target T1, 5-HT2C receptor (Homo sapiens, UniProt P28335).
T1 sequence (P28335 33-458): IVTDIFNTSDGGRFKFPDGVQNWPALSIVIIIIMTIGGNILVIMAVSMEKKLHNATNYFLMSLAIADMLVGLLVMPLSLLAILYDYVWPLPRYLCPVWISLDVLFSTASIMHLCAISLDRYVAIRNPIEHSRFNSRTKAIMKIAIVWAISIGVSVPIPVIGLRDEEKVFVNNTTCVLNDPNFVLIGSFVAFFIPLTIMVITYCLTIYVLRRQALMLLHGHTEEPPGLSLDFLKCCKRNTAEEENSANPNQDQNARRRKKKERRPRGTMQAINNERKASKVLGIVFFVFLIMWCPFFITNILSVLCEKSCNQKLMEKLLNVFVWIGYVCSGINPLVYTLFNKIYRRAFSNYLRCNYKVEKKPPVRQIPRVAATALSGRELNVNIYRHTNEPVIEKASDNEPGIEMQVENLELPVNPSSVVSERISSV
The data set is described as follows: Functional activity, FLIPR calcium assay in CHO cells expressing human 5-HT2C. The format is cell-based. Also noted: expressed in transfected cells; host or cells: CHO cells. As to conditions: for Emax: CHO, read-out: h5-HT2C Relative Efficacy (%). The method, then: as §1

Setting [3] is: FLIPR, CHO cells, Fluo-3-AM, read-out: h5-HT2C EC50.

Where a name gives a salt, the structure may show the parent alone. Read-outs that look alike come from different tables or passages of the source.

Sequence of 5-HT2A receptor (P28223 whole entry): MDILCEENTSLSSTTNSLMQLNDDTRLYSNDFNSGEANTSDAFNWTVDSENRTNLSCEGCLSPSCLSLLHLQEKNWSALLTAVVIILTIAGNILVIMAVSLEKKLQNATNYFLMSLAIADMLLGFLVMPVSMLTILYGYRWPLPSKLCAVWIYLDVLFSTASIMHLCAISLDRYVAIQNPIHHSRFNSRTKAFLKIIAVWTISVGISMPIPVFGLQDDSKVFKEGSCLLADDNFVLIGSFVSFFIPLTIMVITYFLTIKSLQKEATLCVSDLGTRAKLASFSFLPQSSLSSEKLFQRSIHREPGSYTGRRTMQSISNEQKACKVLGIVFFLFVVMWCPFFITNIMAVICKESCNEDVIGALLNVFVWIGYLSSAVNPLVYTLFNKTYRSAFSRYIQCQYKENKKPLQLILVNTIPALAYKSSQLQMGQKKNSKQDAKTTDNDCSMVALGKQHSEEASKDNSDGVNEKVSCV

Usually melting point stands for the temperature, or range, at which the solid turns liquid. Compound `C[C@H](N)CN1CCc2ccc(-c3ccccc3)cc21.O=C(O)/C=C/C(=O)O` showed a melting point of 153 to 154 °C.

In turn, `CC(N)CN1CCc2ccc(OCc3ccccc3)cc21` (stereo not drawn) returned a melting point of 178 to 179 °C.

The compound `Cc1ccc2c(c1)N(CC(C)N)CC2` (stereo not drawn) (as salt: HCl) displayed a melting point of 178 to 179 °C.

As to `CC(N)CN1CCc2c(OCc3ccccc3)cccc21` (stereo not drawn) (as salt: HCl), the melting point lay in the range of 188 to 190 °C.

Turning to `C[C@@H](CN1CCc2ccc(Br)cc21)NCC1CC1` (as salt: HCl), the melting point fell in the range of 155 to 156 °C.

In turn, `CC(C)CN[C@@H](C)CN1CCc2ccc(Br)cc21` (as salt: HCl) gave a melting point of 151 to 153 °C.

In turn, `CC(C)CCN[C@@H](C)CN1CCc2ccc(Br)cc21` (as salt: HCl) registered a melting point of 161 to 163 °C.

In the case of `C[C@@H](CN1CCc2ccc(Br)cc21)NCC1CCCCC1` (as salt: HCl), the melting point lay within 208 to 210 °C.

Turning to `C[C@@H](CN1CCc2ccc(Br)cc21)NCc1ccncc1` (as salt: HCl), the melting point fell in the range of 202 to 204 °C.

Compound `CCC(N)CN1CCc2ccc(Cl)cc21` (stereo not drawn) (as salt: HCl) showed a melting point of 188 to 192 °C.

Compound `C[C@@H](N)CN1CCc2ccc(Cl)c(Cl)c21` (as salt: fumarate) had a melting point of 213 to 214 °C.

`COc1cccc2c1N(C[C@H](C)N)CC2` (as salt: fumarate): the melting point is 155 to 156 °C (dec.).

As to `CN(C)CCN1CCc2ccc(Cl)cc21` (as salt: fumarate), the melting point lay within 144 to 146 °C.

Compound `CC(N)CN1CCc2ccc(C(F)(F)F)cc21` (stereo not drawn) (as salt: fumarate) displayed a melting point of 154 to 158 °C.

For the compound `CC(N)CN1CCc2cc(OCc3ccccc3)ccc21` (stereo not drawn) (as salt: fumarate) (hydrate or solvate), the melting point was 143 to 144 °C.

Turning to `C[C@H](N)CN1CCc2ccc(F)cc21` (as salt: fumarate) [Example 9], the melting point was in the range of 150 to 153 °C.

As for `COc1ccc2c(c1)N(C[C@H](C)N)CC2` (as salt: fumarate) [Example 13], the melting point lay in the range of 175 to 176 °C.

A word on the EC50: it is the concentration that produces a half-maximal response. As for `COc1ccc2c(c1)N(CC(C)N)CC2` (racemic) [Example 2, (RS)-1-(6-Methoxyindolin-1-yl)-2-propylamine Hydrochloride], in data set [1], the concentration giving a half-maximal response (EC50) is 1000 nM and the Emax came out at 63%. In addition, in data set [2], the EC50 was 100 nM and the Emax was 77%.

For the compound `C[C@H](N)CN1CCc2ccc(F)cc21` [Example 9], in data set [1], the EC50 turned out to be 5600 nM and the Emax was 52%. Further, in data set [2], the EC50 came to 253 nM and the Emax was 89%.

`Cc1cc2c(cc1Cl)N(C[C@H](C)N)CC2` [Example 14]: in data set [1], the EC50 turned out to be 3700 nM and the Emax was determined as 55%. Further, in data set [2], the EC50 was 2120 nM and the Emax was determined as 71%.

Take `C[C@H](N)CN1CCc2cc(F)cc(Cl)c21` [Example 17]: in data set [1], the EC50 was found to be 7500 nM and the Emax was 40%. In addition, in data set [2], the EC50 stood at 616 nM and the Emax was determined as 76%.

`C[C@@H](N)CN1CCc2ccc(Br)cc21` [Example 18]: the Emax in data set [1] stood at 7%; in data set [2], 27%. Besides, in data set [2], the EC50 came to 870 nM.

In the case of `C[C@@H](N)CN1CCc2cccc(Br)c21` [Example 19], the Emax in data set [1] was 21%; in data set [2] it was 34%. Besides, the EC50 in data set [2] is 3800 nM.

For the compound `C[C@H](N)CN1CCc2cccc(Br)c21` [Example 20], in data set [1], the Emax is 17%. Also, in data set [2], the EC50 turned out to be 750 nM and the Emax was determined as 68%.

With `C[C@H](N)CN1CCc2ccc(Cl)c(Cl)c21` [Example 23], in data set [1], the EC50 turned out to be 1350 nM and the Emax came to 34%. For the same compound, in data set [2], the EC50 stood at 354 nM and the Emax was determined as 76%.

As for `C[C@H](N)CN1CCc2ccc(Cl)c(F)c21` [Example 27], the EC50 was determined as 1980 nM in data set [1] and 233 nM in data set [2]. For the same compound, the results for the Emax in data set [1] and in data set [2] were 41% and 75%, respectively.

For `C[C@H](N)CN1CCc2cc(Cl)ccc21` [Example 28], the EC50 is 1540 nM in data set [1] and 238 nM in data set [2]. For the same compound, the Emax worked out at 63% in data set [1] and 75% in data set [2].

As for `C[C@H](N)CN1CCc2cc(F)ccc21` [Example 29], the EC50 worked out at 3170 nM in data set [1] and 503 nM in data set [2]. Moreover, the Emax worked out at 18% in data set [1] and 68% in data set [2].

Turning to `CSc1cc2c(cc1F)CCN2CC(C)N` (stereo not drawn) [Example 30], in data set [1], the half-maximal effective concentration (EC50) came out at 72 nM and the Emax stood at 88%. Moreover, in data set [2], the EC50 amounted to 0.1 nM and the Emax stood at 95%.

For `CCSc1cc2c(cc1F)CCN2C[C@H](C)N` [Example 31], the EC50 was 314 nM in data set [1] and 2 nM in data set [2]. The Emax in data set [1] was determined as 72%; in data set [2] it was 92%.

Consider `Cc1cccc2c1CCN2C[C@H](C)N` [Example 32], for which, in data set [1], the EC50 turned out to be 1520 nM and the Emax is 26%. For the same compound, in data set [2], the EC50 was determined as 611 nM and the Emax is 63%.

As for `C[C@H](N)CN1CCc2cc(Br)ccc21` [Example 33], in data set [1], the EC50 worked out at 2930 nM and the Emax is 51%. In data set [2], the EC50 was 257 nM and the Emax turned out to be 75%.

Take `C[C@H](N)CN1CCc2c(F)cccc21` [Example 35]: in data set [1], the Emax worked out at 30%. In data set [2], the EC50 amounted to 727 nM and the Emax came out at 51%.

On to `CCc1cccc2c1N(C[C@H](C)N)CC2` [Example 37], for which the EC50 in data set [1] is 2730 nM; in data set [2], 391 nM. Moreover, the Emax in data set [1] came to 27%; in data set [2], 69%.

Take `C[C@H](N)CN1CCc2c(Cl)cccc21` [Example 38]: in data set [1], the EC50 was determined as 2560 nM and the Emax came out at 26%. Also, in data set [2], the EC50 turned out to be 320 nM and the Emax was 63%.

Regarding `CSc1ccc2c(c1)N(C[C@H](C)N)CC2` [Example 39], in data set [1], the EC50 was 260 nM and the Emax was determined as 75%. Moreover, in data set [2], the EC50 worked out at 4 nM and the Emax came to 87%.

Regarding `CCSc1ccc2c(c1)N(C[C@H](C)N)CC2` [Example 40], the results for the EC50 in data set [1] and in data set [2] were 836 nM and 3 nM, respectively. In addition, the Emax in data set [1] amounted to 64%; in data set [2] it was 95%.

Regarding `CCCSc1ccc2c(c1)N(C[C@H](C)N)CC2` [Example 41], in data set [2], the EC50 is 67 nM and the Emax stood at 83%.

Take `CC(C)Sc1ccc2c(c1)N(C[C@H](C)N)CC2` [Example 42]: in data set [1], the EC50 worked out at 4200 nM and the Emax came out at 43%. In data set [2], the concentration for a half-maximal effect (EC50) is 54 nM and the Emax turned out to be 88%.

On to `C[C@H](N)CN1CCc2ccc(-c3cccnc3)cc21` [Example 47], for which the Emax in data set [1] was 5%. Further, in data set [2], the EC50 came out at 3540 nM and the Emax stood at 33%.

Regarding `C[C@H](N)CN1CCc2ccc(N3CCOCC3)cc21` [Example 49, (S)-1-[6-(4-Morpholinyl)indolin-1-yl]-2-propylamine Fumarate], the Emax in data set [1] is 5%; in data set [2], 69%. Moreover, the EC50 in data set [2] (setting [3]) worked out at 5480 nM.

For the compound `NCCN1CCc2ccc([N+](=O)[O-])cc21` [Example 53, 2-(6-Nitroindolin-1-yl)-1-ethylamine Fumarate], the Emax in data set [1] came to 20%; in data set [2], 86%. In addition, the EC50 in data set [1] (FLIPR, CHO cells, Fluo-3-AM, read-out: h5-HT2A EC50) was 2310 nM; in data set [2] (setting [3]) it was 266 nM.

On to `C[C@H](N)CN1CCc2cc(F)c(C(F)(F)F)cc21` [Example 60, (S)-1-(5-Fluoro-6-trifluoromethylindolin-1-yl)-2-propylamine Fumarate], for which, in data set [2], the EC50 came out at 36 nM and the Emax is 81%.

On to `C[C@H](N)CN1CCc2cc(F)c(I)cc21` [Example 61, (S)-1-(5-Fluoro-6-iodoindolin-1-yl)-2-propylamine Fumarate], for which, in data set [1], the EC50 turned out to be 2180 nM and the Emax turned out to be 49%. Also, in data set [2], the EC50 worked out at 26 nM and the Emax was 68%.

With `Cc1cc2c(cc1F)CCN2C[C@H](C)N` [Example 62, (S)-1-(5-Fluoro-6-methylindolin-1-yl)-2-propylamine Fumarate], in data set [2], the EC50 came out at 329 nM and the Emax was determined as 54%.

For `Cc1ccc2c(c1)N(C[C@H](C)N)CC2` [Example 64, (S)-1-(6-Methylindolin-1-yl)-2-propylamine Fumarate], the Emax in data set [1] was 30%. In data set [2], the EC50 was 303 nM and the Emax is 66%.
